# Results published in patent US10322108B2, “N-benzoate group substituted benzopyrroline-2-one derivative and use thereof” (BEIJING HANMI PHARMACEUTICAL CO., LTD., priority 2015, dated 2019).
# Legend:
# RORγ-LBD = RORγ-LBD (Homo sapiens (Human), UniProt P51449); assay: LanthaScreen TR-FRET screening of RORγ-LBD / co-activator (Fluorescein-D22) interaction; details: read-out: IC50 Values; TR-FRET, 2 nM RORγ-LBD, 150 nM Fluorescein-D22 co-activator
# Th17 cells = assay: Differentiation inhibition experiments on Th17 cells (IL-17A content in supernatant by ELISA); format: cell-based, C57 mouse; details: 1 μM compound; differentiation of mouse naïve CD4+ T cells to Th17, IL-17A ELISA; read-out: Inhibition Rate (1 μM)
# Protocol: 5 μg/mL mouse CD3 antibody (purchased from BD) was coated on a 96-well plate (37° C., 2-6 hours) and stored for future use. C57 mouse lymph gland naïve CD4 positive T cells were separated using CD4+ T cell isolation kit II (purchased from MACS), and were inoculated to the coated 96-well plate at 5×10^5 cells/well/100 μL. The test sample was gradient diluted with RMPI-1640 culture medium (Gibco, 22440), and was made to be 4 times of the final concentration (starting from 1 μM, 10 times dilution, setting 6 drug concentrations). The diluted test sample was added at 50 μL/well to the test well inoculated with cells. To each of the positive and negative control wells was added 50 μL RMPI-1640 culture medium. To each of the test wells and the positive control wells was further added 50 μL mixed solution of activators (20 ug/mL mouse CD28 antibody (purchased from BD); 40 ug/mL mouse IL-4 antibody (purchased from BD); 40 ug/mL mouse IFNγ antibody (purchased from BD); 4 ng/mL mouse TGF-β1 (purchased from R&D); 200 ng/mL mouse IL-6 (purchased from R&D); 20 ng/mL mouse IL-23 (purchased from R&D)) having a 4-fold final concentration; to the negative control well was added 50 μL RMPI-1640 culture medium. The loaded 96-well plate was placed in an incubator at 37° C., 5% CO2 and was cultured for 66 hours, followed by adding to each well 50 uL mixed solution of PMA (purchased from Sigma, working concentration: 50 ng/mL) and Ionomycin (purchased from Sigma, working concentration: 1 ug/mL), and culturing at 37° C. for another 6 hours. After the culture was completed, a cell culture supernatant was taken, and the IL-17A content in the supernatant was determined using mouse IL-17A ELISA kit (purchased from Dakewe), and the inhibition rate and the IC50 value were calculated. The specific operation followed the kit specification (see below):
# (1) Determining the number of required strips according to the number of the test wells (blank and standard); taking out the Washing buffer (50×) and the ready-to-use solution from the kit 20 min in advance to balance to room temperature.
# (2) Loading samples: adding diluted Cytokine standard to the standard well at 100 μL/well, adding the sample to the sample well at 100 μL/well, setting a blank well, in which Dilution buffer R (1×) was used instead of the sample and the standard.
# (3) Adding testing antibody: adding diluted Biotinylated antibody at 50 μL/well; covering with a sealing film after mixing uniformly, and incubating at 37° C. for 90 min.
# (4) Washing the plate: deducting the liquid in the well, adding 1× washing buffer at 300 μL/well; maintain for 1 min, then discarding the liquid in the well; repeating 4 times, each time deducting to dryness on filter pater.
# (5) Adding enzyme: adding diluted Streptavidin-HRP at 100 μL/well; covering with a sealing film, and incubating at 37° C. for 30 min.
# (6) Washing the plate: repeating […].
# (7) Color development: adding TMB at 100 μL/well, incubating at 37° C. in a dark place for 5-30 min, and determining to terminate the reaction according to the depth of the color in the well (dark blue). Normally, a good effect can be achieved by color development for 10-20 min.
# (8) Terminating the reaction: rapidly adding a stop solution at 100 μL/well to terminate the reaction.
# Reading the plate: 10 min after termination, reading the value using a measurement wavelength of 450 nm.
# RORγ-LBD, sequence (P51449 269-508): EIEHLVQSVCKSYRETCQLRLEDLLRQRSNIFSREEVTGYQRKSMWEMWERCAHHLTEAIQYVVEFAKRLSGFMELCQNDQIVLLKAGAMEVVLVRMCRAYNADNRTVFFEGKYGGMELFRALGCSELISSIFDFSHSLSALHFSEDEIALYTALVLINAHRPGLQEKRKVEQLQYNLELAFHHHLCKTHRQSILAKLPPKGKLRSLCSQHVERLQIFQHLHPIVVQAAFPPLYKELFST
Compound,IC50 (RORγ-LBD),inhibition at 1 µM (Th17 cells)
"O=C(O)c1ccc(N2C(=O)/C(=C\c3c(Cl)cccc3Cl)c3c(F)cccc32)cc1 [Example 15A, (trans)-4-(3-(2,6-dichloro-benzylidene)-4-fluoro-indolin-2-on-1-yl)-benzoic acid]",< 100 nM,> 50%
"COc1cccc(Cl)c1/C=C1\C(=O)N(c2ccc(C(=O)O)c(O)c2)c2cccc(C)c21 [Example 3, (trans)-4-(3-(2-chloro-6-methoxy-benzylidene)-4-methylindolin-2-on-1-yl)-2-hydroxybenzoic acid]",< 100 nM,> 50%
"O=C(O)c1ccc(N2C(=O)/C(=C/c3c(Cl)cccc3C3CC3)c3c(F)cccc32)cc1 [Example 16B, (cis)-4-(3-(2-chloro-6-cyclopropyl-benzylidene)-4-fluoro-indolin-2-on-1-yl)-benzoic acid]",< 100 nM,> 50%
"Cc1cccc(Cl)c1/C=C1\C(=O)N(c2ccc(C(=O)O)c(O)c2)c2cccc(C)c21 [Example 10, (trans)-4-(3-(2-chloro-6-methyl-benzylidene)-4-methylindolin-2-on-1-yl)-2-hydroxybenzoic acid]",< 100 nM,> 50%
"Cc1cccc2c1/C(=C/c1c(Cl)cccc1C1CC1)C(=O)N2c1ccc(C(=O)O)c(O)c1 [Example 1, (trans)-4-(3-(2-chloro-6-cyclopropyl-benzylidene)-4-methylindolin-2-on-1-yl)-2-hydroxy benzoic acid]",< 100 nM,> 50%
"Cc1cccc2c1/C(=C/c1c(Cl)cccc1C1CC1)C(=O)N2c1ccc(C(=O)O)cc1 [Example 2A, (trans)-4-(3-(2-chloro-6-cyclopropyl-benzylidene)-4-methylindolin-2-on-1-yl)-benzoic acid]",< 100 nM,> 50%
"O=C(O)c1ccc(N2C(=O)/C(=C/c3c(Cl)cccc3Cl)c3c(F)cccc32)cc1 [Example 15B, (cis)-4-(3-(2,6-dichloro-benzylidene)-4-fluoro-indolin-2-on-1-yl)-benzoic acid]",< 100 nM,< 50%
"Cc1cccc2c1/C(=C/c1c(Cl)cccc1Cl)C(=O)N2c1ccc(C(=O)O)c(O)c1 [Example 4, (trans)-4-(3-(2,6-dichloro-benzylidene)-4-methylindolin-2-on-1-yl)-2-hydroxybenzoic acid]",< 100 nM,> 50%
